The numbers were not newly measured in US9526785B2, “Pharmaceuticals for oral delivery” (Enteris BioPharma, Inc., priority 2013, dated 2016), which cites them from elsewhere.

The test system of the data set is Methicillin-Resistant Staphylococcus aureus (MRSA), Stenotrophomonas maltophilia, Haemophilus influenzae, and Neisseria gonorrhoeae. As to conditions: reported values; cited from earlier work.

Values after ≈ are worked out from the molar mass of the structure shown.

Take `CN(C)c1cc(NC(=O)CNC(C)(C)C)c(O)c2c1C[C@H]1C[C@H]3[C@H](N(C)C)C(O)=C(C(N)=O)C(=O)[C@@]3(O)C(O)=C1C2=O` [Tigecycline]: the MIC is 2 µg/mL (≈ 3.41 µM).
